± gives the expanded uncertainty stated by the source.
Experiments:
[1] = 100 kPa, Liquid; for speed of sound: Frequency=2 MHz, Linear variable-path acoustic interferometer; for mass density: Vibrating tube method
[2] = xn = mol fraction of the nth substance listed; settings: 100 kPa, Liquid; for speed of sound: Frequency=2 MHz, Linear variable-path acoustic interferometer; for mass density: Vibrating tube method

Compound | speed of sound ([1]; 298.15 K) [m/s] | mass density ([1]; 298.15 K) [kg/m3] | mass density ([1]; 303.15 K) [kg/m3] | speed of sound ([1]; 308.15 K) [m/s] | mass density ([1]; 308.15 K) [kg/m3] | mass density ([1]; 313.15 K) [kg/m3] | mass density ([1]; 318.15 K) [kg/m3] | other results
CCCCOCCO [2-butoxyethan-1-ol] | 1305 ± 8 | 896.46 ± 4 | 892.22 ± 4 | 1275 ± 7.8 | 887.97 ± 4 | 883.7 ± 4 | 879.42 ± 4 | –
CCOCCO [2-ethoxyethan-1-ol] | 1301.4 ± 8 | 925.36 ± 4 | 920.72 ± 4 | 1274.8 ± 7.9 | 916.11 ± 4 | 911.47 ± 4 | 906.9 ± 4 | –
COCCO [2-methoxyethan-1-ol] | 1341.6 ± 8.2 | 960.29 ± 4 | 955.84 ± 4 | 1302 ± 7.9 | 951.16 ± 4 | 946.49 ± 4 | 941.89 ± 4 | –
COCCO [2-methoxyethan-1-ol] + OCc1ccccc1 | – | – | – | – | – | – | – | speed of sound ([2]; 298.15 K, x2 = 0): 1341.6 ± 8.2 m/s; mass density ([2]; 298.15 K, x2 = 0): 960.29 ± 4 kg/m3; mass density ([2]; 303.15 K, x2 = 0): 955.84 ± 4 kg/m3; speed of sound ([2]; 308.15 K, x2 = 0): 1302 ± 7.9 m/s; mass density ([2]; 308.15 K, x2 = 0): 951.16 ± 4 kg/m3; mass density ([2]; 313.15 K, x2 = 0): 946.49 ± 4 kg/m3; mass density ([2]; 318.15 K, x2 = 0): 941.89 ± 4 kg/m3
OCc1ccccc1 [benzenemethanol] | 1534.5 ± 9.3 | 1041.05 ± 4 | 1037.15 ± 4 | 1496 ± 9.1 | 1033.32 ± 4 | 1029.46 ± 4 | 1025.59 ± 4 | –
OCc1ccccc1 [benzenemethanol] + CCCCOCCO | – | – | – | – | – | – | – | speed of sound ([2]; 298.15 K, x1 = 1): 1534.5 ± 9.3 m/s; mass density ([2]; 298.15 K, x1 = 1): 1041.05 ± 4 kg/m3; mass density ([2]; 303.15 K, x1 = 1): 1037.15 ± 4 kg/m3; speed of sound ([2]; 308.15 K, x1 = 1): 1496 ± 9.1 m/s; mass density ([2]; 308.15 K, x1 = 1): 1033.32 ± 4 kg/m3; mass density ([2]; 313.15 K, x1 = 1): 1029.46 ± 4 kg/m3; mass density ([2]; 318.15 K, x1 = 1): 1025.59 ± 4 kg/m3
OCc1ccccc1 [benzenemethanol] + CCOCCO | – | – | – | – | – | – | – | speed of sound ([2]; 298.15 K, x1 = 1): 1534.5 ± 9.3 m/s; mass density ([2]; 298.15 K, x1 = 1): 1041.05 ± 4 kg/m3; mass density ([2]; 303.15 K, x1 = 1): 1037.15 ± 4 kg/m3; speed of sound ([2]; 308.15 K, x1 = 1): 1496 ± 9.1 m/s; mass density ([2]; 308.15 K, x1 = 1): 1033.32 ± 4 kg/m3; mass density ([2]; 313.15 K, x1 = 1): 1029.46 ± 4 kg/m3; mass density ([2]; 318.15 K, x1 = 1): 1025.59 ± 4 kg/m3
